Data set [1] has as its target Nicotinic Acetylcholine α4β2 Receptor (UniProt P09483+P12390). Description: Binding assay for human or rat nicotinic acetylcholine α4β2 receptor ([3H]Cytisine displacement). The conditions noted are these: [3H]Cytisine 2.5 nM; rat brain frontal cortex or recombinant human receptor in CHO cells (not specified which); read-out: Ki. The procedure:
Binding Assay for Human or Rat Nicotinic Acetylcholine α4β2 Receptor
• Receptor source: Rat brain frontal cortex or recombinant human cDNA expressed in CHO cells • Radioligand: [^3H]Cytisine 15-40 Ci/mmole • Final ligand concentration—[2.5 nM] • Non-specific determinant: Epibatidine—[0.1 μM] • Reference compound: Epibatidine • Positive control: Epibatidine Incubation Conditions:
Increasing concentrations of test compounds or standard were incubated with membrane receptors and radioligand in 120 mM NaCl, 2.5 mM KCl, 1 mM CaCl2, 1 mM MgCl2 and 50 mM TRIS-HCl (pH 7.4) for 60 minutes at room temperature. The reaction was terminated by rapid vacuum filtration onto the glass fiber filters. Radioactivity trapped onto the filters was determined and compared to the control values in order to ascertain any interactions of the test compound(s) with either cloned human or rat receptor binding site.
Literature Reference: Bunnelle W. H., Daanen J. F., Ryther K. B., Schrimpf M. R., Dart M. J., Gelain A., Meyer M. D., Frost J. M., Anderson D. J., Buckley M., Curzon P., Cao Y-J., Puttfarcken P., Searle X., Ji J., Putman C. B., Surowy C., Toma L. and Barlocco D. Structure-Activity Studies and Analgesic Efficacy of N-(3-Pyridinyl)-Bridged Bicyclic Diamines, Exceptionally Potent Agonists at Nicotinic Acetylcholine Receptors. J. Med. Chem. 2007, 50, […].

A short description of data set [2]: Rodent pharmacokinetic study. The format is in vivo. As to conditions: Wistar, plasma, Wister rat/Male; for bioavailability: 5 mg/kg Per-Oral vs 5 mg/kg Intravenous; for AUC(0-t) / Cmax / Tmax / half-life: 5 mg/kg. The procedure:
Rodent Pharmacokinetic Study
Three to five animals were housed in each cage. Animals were kept fasted over night and maintained on a 12 hours light/dark cycle. Three rats were dosed NCE orally (15 or 5 mg/kg) and intravenously (5 mg/kg) on day 0 and day 2
At each time point blood was collected by jugular vein. Plasma was stored frozen at −20° C. until analysis. The concentrations of the NCE compound in plasma were determined using LC-MS/MS method. Schedule time points: Pre dose 0.25, 0.5, 1, 1.5, 2, 3, 4, 6, 8, 10, 12 and 24 hours after dosing (n=3).
Pharmacokinetic parameters Cmax, Tmax, AUCt, T1/2 and Bioavailability were calculated by non-compartmental model using software WinNonlin version 5.0.1.

The subject of another data set is Male Wister rats. Description: Object recognition task model. The format is in vivo, rat. The conditions noted are these: p.o.; for Exploration time mean ± S.E.M, Familiar object / Exploration time mean ± S.E.M, Novel object: choice trial. The procedure:
Object Recognition Task Model
The cognition-enhancing properties of compounds of this invention were estimated using a model of animal cognition: the object recognition task model.
Male Wister rats (230-280 grams) obtained from N. I. N. (National Institute of Nutrition, Hyderabad, India) was used as experimental animals. Four animals were housed in each cage. […] Also the rats were habituated to individual arenas for 1 hour in the absence of any objects.
One group of 12 rats received vehicle (1 mL/Kg) orally and another set of animals received compound of the formula (I) either orally or i.p., before one hour of the familiar (T1) and choice trial (T2).
The experiment was carried out in a 50×50×50 cm open field made up of acrylic. In the familiarization phase, (T1), the rats were placed individually in the open field for 3 minutes, in which two identical objects (plastic bottles, 12.5 cm height×5.5 cm diameter) covered in yellow masking tape alone (a1 and a2) were positioned in two adjacent corners, 10 cm. from the walls. After 24 hours of the (T1) trial for long-term memory test, the same rats were placed in the same arena as they were placed in T1 trial. Choice phase (T2) rats were allowed to explore the open field for 3 minutes in presence of one familiar object (a3) and one novel object (b) (Amber color glass bottle, 12 cm high and 5 cm in diameter). Familiar objects presented similar textures, colors and sizes. During the T1 and T2 trial, explorations of each object (defined as sniffing, licking, chewing or having moving vibrissae whilst directing the nose towards the object at a distance of less than 1 cm) were recorded separately by stopwatch. Sitting on an object was not regarded as exploratory activity, however, it was rarely observed.
T1 is the total time spent exploring the familiar objects (a1+a2).
T2 is the total time spent exploring the familiar object and novel object (a3+b).
The object recognition test was performed as described by Ennaceur, A., Delacour, J., 1988, A new one-trial test for neurobiological studies of memory in rats—Behavioural data, Behav. Brain Res., 31, 47-59.

Structures can show the parent of a compound that is named as a salt.

One may read the Ki as the dissociation constant of the complex between target and ligand, obtained from inhibition or displacement. As to `Cc1cncc(N2C(CN)CC3CC32)c1` (stereo not drawn) [Example 26, N-(2-(3-methylpyridin-5-yl)-2-azabicyclo[3.1.0]hex-3-ylmethyl) amine fumarate], in data set [1], the Ki turned out to be 0.0057 µM.

Consider `CNCC1CC2CC2N1c1cncc(OC(C)C)c1` (stereo not drawn) [Example 15, N-[2-(5-Isopropoxypyridin-3-yl)-2-azabicyclo[3.1.0]hex-3-ylmethyl]methylamine], for which the Ki in data set [1] was 0.383 µM.

In general, bioavailability refers to dose-corrected exposure relative to a reference, in per cent. The low end stands for little systemic uptake, the high end for much systemic uptake. A word on the AUC(0-t): it is the area under the concentration-time curve up to a stated or last time point. A lower AUC(0-t) goes with less exposure. As usually defined, the Cmax is the peak of the concentration-time curve. What is called Tmax is the time from dosing to the highest level. The half-life is the time needed for the level to fall by half in the phase considered. Low values mean fast loss, high ones slow loss. As for `NCC1CC2CC2N1c1cncnc1.O=C(O)/C=C/C(=O)O` (stereo not drawn) [Example 22, N-(2-(pyrimidin-5-yl)-2-azabicyclo[3.1.0]hex-3-ylmethyl) amine fumarate], in data set [1], the Ki was found to be 0.0581 µM. The molecule also displayed a bioavailability in data set [2] of 89 ± 9%. For the same molecule, in data set [2] (Intravenous), the AUC(0-t) was 2.25 ± 0.228 µg·h/mL, the Cmax was found to be 1.38 ± 0.156 µg/mL, the Tmax was 15 min and the half-life is 80.4 ± 4.2 min. In data set [2] (Per-Oral), the AUC(0-t) was determined as 2.02 ± 0.377 µg·h/mL, the peak level (Cmax) was 1.1 ± 0.211 µg/mL, the Tmax is 4.8 min and the half-life was 97.8 ± 6.6 min.

As for `NCC1CC2CC2N1C(=O)c1cc2ccccc2[nH]1` (stereo not drawn) [Example 34, (3-Aminomethyl-2-azabicyclo[3.1.0]hex-2-yl)-(1H-indol-2-yl)-methanone], in data set [1], the Ki was 0.055 µM.

Take `CCNCC1CC2CC2N1c1cncc(Br)c1` (stereo not drawn) [Example 5, N-[2-(5-Bromopyridin-3-yl)-2-azabicyclo[3.1.0]hex-3-ylmethyl]ethylamine tartarate]: the Ki in data set [1] was found to be 0.7 µM.

On to `CNCC1CC2CC2N1c1cnc2ccccc2c1` (stereo not drawn) [Example 31, N-(2-(quinolin-3-yl)-2-azabicyclo[3.1.0]hex-3-ylmethyl) methylamine fumarate], for which, in data set [1], the Ki was 1.65 µM.

With `NCC1CC2CC2N1C(=O)c1cncc(Br)c1` (stereo not drawn) [Example 36, (3-Aminomethyl-2-azabicyclo[3.1.0]hex-2-yl) (5-bromo pyridin-3-yl) methanone tartrate], in data set [1], the Ki is 0.0178 µM.

`NCC1CC2CC2N1C(=O)c1cccnc1` (stereo not drawn) [Example 38, (3-Aminomethyl-2-aza bicyclo[3.1.0]hex-2-yl) pyridin-3-yl methanone tartarate]: in data set [1], the Ki came out at 0.045 µM.

Turning to `NCC1CC2CC2N1C(=O)c1ccccn1` (stereo not drawn) [Example 37, (3-Aminomethyl-2-azabicyclo[3.1.0]hex-2-yl) pyridin-2-yl methanone tartrate], in data set [1], the Ki worked out at 0.0116 µM.

For the molecule `NCC1CC2CC2N1c1ccc(Cl)nc1` (stereo not drawn) [Example 25, N-(2-(2-chloropyridin-5-yl)-2-azabicyclo[3.1.0]hex-3-ylmethyl) amine fumarate], in data set [1], the Ki came out at 0.0069 µM.

On to `CNCC1CC2CC2N1c1cncc(Cl)c1.O=C(O)/C=C/C(=O)O` (stereo not drawn) [Example 12, N-[2-(5-Chloropyridin-3-yl)-2-azabicyclo[3.1.0]hex-3-ylmethyl]methylamine fumarate], for which, in data set [1], the Ki is 0.0773 µM. Further, in the data set with Male Wister rats (1 mg/kg), the Inference result is on record as “Active”; the “Exploration time mean ± S.E.M, Familiar object” value is 4.651 ± 0.619 s; the “Exploration time mean ± S.E.M, Novel object” value worked out at 16.70 ± 2.136 s.

`NCC1CC2CC2N1c1cncc(Sc2ccccc2)c1` (stereo not drawn) [Example 16, [2-(5-Phenylsulfanylpyridin-3-yl)-2-azabicyclo[3.1.0]hex-3-yl]methylamine fumarate]: the inhibition constant (Ki) in data set [1] was found to be 0.451 µM.

As for `NCC1CC2CC2N1C(=O)c1ccncc1` (stereo not drawn) [Example 39, (3-Aminomethyl-2-aza-bicyclo[3.1.0]hex-2-yl) pyridin-4-yl methanone tartarate], the Ki in data set [1] is 0.109 µM.

As for `CNCC1CC2CC2N1C(=O)c1ccco1` (single isomer, unassigned) [Example 3, Furan-2-yl-(3-methylaminomethyl-2-azabicyclo[3.1.0]hex-2-yl)methanone tartarate], the Ki in data set [1] came out at 0.0417 µM.

On to `NCC1CC2CC2N1C(=O)c1ccco1.O=C(O)C(O)C(O)C(=O)O` (stereo not drawn) [Example 35, (3-Aminomethyl-2-aza bicyclo[3.1.0]hex-2-yl) furan-2-yl methanone tartrate], for which the Ki in data set [1] turned out to be 0.0387 µM. Besides, the bioavailability in data set [2] was 92 ± 8%. In data set [2] (Intravenous), the AUC(0-t) is 1.42 ± 0.071 µg·h/mL, the highest level (Cmax) was 1.78 ± 0.056 µg/mL, the Tmax was determined as 4.8 min and the half-life was 67.8 ± 9 min. In data set [2] (Per-Oral), the AUC(0-t) is 1.31 ± 0.146 µg·h/mL, the peak level (Cmax) was 0.998 ± 0.175 µg/mL, the Tmax worked out at 19.8 ± 8.4 min and the half-life is 89.4 ± 15.6 min. Also, in the data set with Male Wister rats (0.3 mg/kg), the Inference result is on record as “Active”; the “Exploration time mean ± S.E.M, Familiar object” value amounted to 5.30 ± 1.05 s; the “Exploration time mean ± S.E.M, Novel object” value was 14.90 ± 7.74 s.

As to `CNCC1CC2CC2N1C(=O)c1cc2ccccc2o1` (stereo not drawn) [Example 32, Benzofuran-2-yl-(3-methylaminomethyl-2-azabicyclo[3.1.0]hex-2-yl)methanone tartrate], the Ki in data set [1] was 0.0383 µM.

For the molecule `NCC1CC2CC2N1c1cncc(C(F)(F)F)c1` (stereo not drawn) [Example 28, N-(2-(3-trifluoromethylpyridin-5-yl)-2-azabicyclo[3.1.0]hex-3-ylmethyl) amine fumarate], the Ki in data set [1] was 0.14 µM.

For the molecule `CNCC1CC2CC2N1c1cncc(C)c1` (stereo not drawn) [Example 27, N-(2-(3-methylpyridin-5-yl)-2-azabicyclo[3.1.0]hex-3-ylmethyl)methyl amine bistartarate], the Ki in data set [1] came out at 0.253 µM.

As for `CNCC1CC2CC2N1c1nccnc1O` (stereo not drawn) [Example 20, N-[2-(3-Hydroxypyrazin-2-yl)-2-azabicyclo[3.1.0]hex-3-ylmethyl] methylamine], the Ki in data set [1] turned out to be 0.013 µM.

As for `CNCC1CC2CC2N1C(=O)c1cc2cccc(Br)c2o1` (stereo not drawn) [Example 33, (7-Bromo benzofuran-2-yl)-(3-methylaminomethyl-2-azabicyclo[3.1.0]hex-2-yl) methanone tartrate], the Ki in data set [1] turned out to be 3 µM.

As to `NCC1CC2CC2N1c1cnc2ccccc2c1` (stereo not drawn) [Example 29, N-(2-(quinolin-3-yl)-2-azabicyclo[3.1.0]hex-3-ylmethyl) amine fumarate], in data set [1], the Ki was 0.135 µM.

Take `CNCC1CC2CC2N1c1cncc(C(F)(F)F)c1` (stereo not drawn) [Example 30, N-(2-(3-trifluoromethylpyridin-5-yl)-2-azabicyclo[3.1.0]hex-3-ylmethyl) methylamine fumarate]: in data set [1], the Ki stood at 0.247 µM.

Take `NCC1CC2CC2N1c1ccc(C(F)(F)F)nc1` (stereo not drawn) [Example 24, N-(2-(2-trifluoromethylpyridin-5-yl)-2-azabicyclo[3.1.0]hex-3-ylmethyl) amine fumarate]: the Ki in data set [1] is 0.681 µM.

As to `CNCC1CC2CC2N1c1cncc(OC)c1` (stereo not drawn) [Example 14, N-[2-(5-Methoxypyridin-3-yl)-2-azabicyclo[3.1.0]hex-3-ylmethyl]methylamine fumarate], the Ki in data set [1] amounted to 0.179 µM.

Source of the values: patent US8653071B2, “α4β2 neuronal nicotinic acetylcholine receptor ligands” (Suven Life Sciences Limited, priority 2009, dated 2014).
